Values joined by “and” are separate entries in the source; they are usually repeats but may differ in a detail not shown here. Equal entries are not always repeated. Where two headings read alike, the source gives them in different places. Square brackets hold non-standard residues; d marks the D form. Peptide text beside a SMILES is read from it. * marks the point of attachment. NH(4-NH2-anthraquinon-1-yl) = Nc1ccc(N*)c2c1C(=O)c1ccccc1C2=O; Cha = N[C@@H](CC1CCCCC1)C(=O)O; Abu = CC[C@H](N)C(=O)O
Legend:
Type in all cases: cell-based, human
[1] = test system: Det551 (skin fibroblasts)
Procedure: (§1) IC50 values of various potential HCV ECTA compounds (5761-5768) were determined using CCD 18co (normal colon epithelial cells), Det551 (skin fibroblasts), MCF7TDX (Tomudex resistant breast carcinoma cell line), HepG2 and Hep3B (hepatocellular carcinoma cell lines). Compound 5759 mimics the “released toxin” and serves as a positive control. IC50=the concentration of HCV ECTA compound that inhibits cellular growth by 50%.
(§2) Normal human colon epithelial cells (CCD18co), skin fibroblasts (Det551) Hepatocellular carcinoma cell lines (Hep3B and HepG2), breast cancer cell line (MCF7) and fibrosarcoma cell line (HT1080) were all purchased from the American Type Culture Collection (ATCC; Rockville Md.). MCF7TDX, human breast carcinoma cells resistant to 2 μM Tomudex™ have been described (ref. 98). Cells were cultured at 37° C. in 95% humidified air/5% CO2 in RPMI 1640 culture medium containing 10% fetal calf serum (Life Technologies) and penicillin/streptomycin/fungizone. MCF7TDX cells were maintained continuously in 2 μM Tomudex™. Normal cells were passaged a maximum of 15 times to avoid senescence.
(§3) The cytotoxic activity of various candidate prototoxophores was assessed by determining the IC50 value (concentration that inhibits cellular growth by 50%) in cellular proliferation assays and compared with the results obtained using the 5759 toxophore. Exponentially growing cells were transferred at a density of 1000 to 5500 cells per well to a 96 well tissue culture plate and allowed to attach for 24 hr. HCV ECTA compounds were applied in duplicate half log serial dilutions. After an additional 72 hr incubation, surviving adherent cells were washed once with PBS and stained with 0.5% crystal violet in methanol. Sorenson's buffer (0.025 M sodium citrate, 0.025 M citric acid in 50% ethanol) was added to each well and absorbance at 540 nm was monitored (absorbance at 540 nm correlates with cell survival; see refs. 103 to 105). Semi-adherent or non-adherent cells were stained with CYQUANT stain according to the protocol provided with the cell proliferation assay kit (C-7026; Molecular Probes; Eugene Oreg.). Fluorescence (485 nm excitation, 535 nm emission) was monitored. IC50 values were derived from sigmoid curves fit according to the Hill inhibitory Emax model (ref. 106).
(§4) Det551 or MCF7TDX cells were treated with compounds 5759, 5761, 5763 and 5767 for 2, 6, 12, 24 and 72 hours. After the indicated times the compounds were removed, the cells were washed, incubated for a total of 72 hours and IC50 values were determined. IC50=the concentration of HCV ECTA compound that inhibits cellular growth by 50%.
(§5) Cells were treated with compounds 5759, 5762 or 5763 for 15 hours. After removal of the compounds, the cells were washed, incubated for a total of 72 hours and IC50 values were determined. IC50=the concentration of HCV ECTA compound that inhibits cellular growth by 50%.

[2] = test system: MCF7TDX (Tomudex resistant breast carcinoma cell line)
Procedure: as §1, §2, §3, §4, §5

[3] = test system: CCD18co (normal colon epithelial cells)
Procedure: as §1, §2, §3, §5

[4] = test system: HepG2 (hepatocellular carcinoma cell line)
Procedure: as §1, §2, §3, §5

[5] = test system: Hep3B (hepatocellular carcinoma cell line)
Procedure: as §1, §2, §3, §5

[6] = Det551, 2 h exposure, washed, total 72 hours, read-out: IC50 after various times of drug exposure
[7] = Det551, 6 h exposure, washed, total 72 hours, read-out: IC50 after various times of drug exposure
[8] = Det551, 12 h exposure, washed, total 72 hours, read-out: IC50 after various times of drug exposure
[9] = MCF7/TDX, 2 h exposure, washed, total 72 hours, read-out: IC50 after various times of drug exposure
[10] = MCF7/TDX, 6 h exposure, washed, total 72 hours, read-out: IC50 after various times of drug exposure
[11] = MCF7/TDX, 12 h exposure, washed, total 72 hours, read-out: IC50 after various times of drug exposure
[12] = MCF7/TDX, 24 h exposure, washed, total 72 hours, read-out: IC50 after various times of drug exposure
[13] = MCF7/TDX, 72 h exposure, read-out: IC50 after various times of drug exposure
[14] = 72 hr incubation, read-out: IC50 (concentration that inhibits cellular growth by 50%)
[15] = HepG2, 72 hr incubation, read-out: IC50 (concentration that inhibits cellular growth by 50%)
[16] = Det551, 15 hours exposure, washed, total 72 hours, read-out: IC50 after 15 hour of drug exposure
[17] = MCF7TDX, 15 hours exposure, washed, total 72 hours, read-out: IC50 after 15 hour of drug exposure
[18] = 15 hours exposure, washed, total 72 hours, read-out: IC50 after 15 hour of drug exposure
[19] = HepG2, 15 hours exposure, washed, total 72 hours, read-out: IC50 after 15 hour of drug exposure
[20] = Det551, 24 h exposure, washed, total 72 hours, read-out: IC50 after various times of drug exposure
[21] = Det551, 72 h exposure, read-out: IC50 after various times of drug exposure
[22] = Det551, 72 hr incubation, read-out: IC50 (concentration that inhibits cellular growth by 50%)
[23] = MCF7TDX, 72 hr incubation, read-out: IC50 (concentration that inhibits cellular growth by 50%)

Structure (SMILES): CC(=O)N[C@@H](CC(=O)O)C(=O)N[C@@H](CCC(=O)O)C(=O)N[C@H](C(=O)N[C@H](C(=O)N1CCC[C@H]1C(=O)N[C@@H](CS)C(=O)N[C@@H](CO)C(=O)NCC(=O)NCC(=O)Nc1ccc(N)c2c1C(=O)c1ccccc1C2=O)C(C)C)C(C)C [Compound 5761, Acetyl-Asp-Glu-Val-Val-Pro-Cys-Ser-Gly-Gly-toxin] (Ac-DEVVPCSGG-{NH(4-NH2-anthraquinon-1-yl)})
- IC50 [1, 6]: > 150 µM
- IC50 [1, 7]: > 150 µM and 126 µM
- IC50 [1, 8]: > 150 µM and 88 µM
- IC50 [2, 9]: > 150 µM
- IC50 [2, 10]: > 150 µM
- IC50 [2, 11]: 89 µM
- IC50 [2, 12]: 28 µM
- IC50 [2, 13]: 5 µM
- IC50 [3, 14]: 24.4 µM
- IC50 [4, 15]: 51.1 µM

Structure (SMILES): CC(=O)N[C@@H](CC(=O)O)C(=O)N[C@@H](CCC(=O)O)C(=O)N[C@@H](C)C(=O)N[C@H](C(=O)N[C@@H](CC(C)C)C(=O)N[C@@H](CS)C(=O)N[C@@H](CO)C(=O)NCC(=O)NCC(=O)Nc1ccc(N)c2c1C(=O)c1ccccc1C2=O)C(C)C [Compound 5762, Acetyl-Asp-Glu-Ala-Val-Leu-Cys-Ser-Gly-Gly-toxin] (Ac-DEAVLCSGG-{NH(4-NH2-anthraquinon-1-yl)})
- IC50 [1, 16]: 46 µM
- IC50 [2, 17]: 132 µM
- IC50 [3, 18]: 77 µM
- IC50 [5, 18]: > 150 µM
- IC50 [4, 19]: > 150 µM

Structure (SMILES): CC(=O)N[C@@H](CC(=O)O)C(=O)N[C@@H](CCC(=O)O)C(=O)N[C@H](C(=O)N[C@H](C(=O)N1CCC[C@H]1C(=O)N[C@@H](CS)C(=O)N[C@@H](CO)C(=O)NCC(=O)NCC(=O)Nc1ccc(N)c2c1C(=O)c1ccccc1C2=O)[C@@H](C)O)C(C)C [Compound 5763, Acetyl-Asp-Glu-Val-Thr-Pro-Cys-Ser-Gly-Gly-toxin] (Ac-DEVTPCSGG-{NH(4-NH2-anthraquinon-1-yl)})
- IC50 [1, 6]: > 150 µM
- IC50 [1, 7]: 120 µM
- IC50 [1, 8]: 84 µM
- IC50 [1, 16]: 131 µM
- IC50 [1, 20]: 48 µM
- IC50 [1, 21]: 17 µM
- IC50 [1, 22]: 17 µM
- IC50 [2, 9]: > 150 µM
- IC50 [2, 10]: > 150 µM
- IC50 [2, 11]: 116 µM
- IC50 [2, 12]: 32 µM
- IC50 [2, 13]: 7 µM
- IC50 [2, 17]: 146 µM
- IC50 [2, 23]: 6 µM
- IC50 [3, 18]: 112 µM
- IC50 [5, 18]: > 150 µM
- IC50 [4, 19]: > 150 µM

Structure (SMILES): CC(=O)N[C@@H](CC(=O)O)C(=O)N[C@@H](CCC(=O)O)C(=O)N1CCC[C@H]1C(=O)N[C@@H](CC(C)C)C(=O)N[C@@H](C)C(=O)N[C@@H](CS)C(=O)N[C@@H](CO)C(=O)NCC(=O)NCC(=O)Nc1ccc(N)c2c1C(=O)c1ccccc1C2=O [Compound 5765, Acetyl-Asp-Glu-Pro-Leu-Ala-Cys-Ser-Gly-Gly-toxin] (Ac-DEPLACSGG-{NH(4-NH2-anthraquinon-1-yl)})
- IC50 [1, 22]: 15 µM and 16 µM
- IC50 [3, 14]: 28 µM and 33 µM and 38 µM
- IC50 [5, 14]: 25 µM and 26 µM
- IC50 [4, 15]: 18 µM and 21 µM

Structure (SMILES): CC[C@H](NC(=O)[C@H](CC1CCCCC1)NC(=O)[C@H](CCC(=O)O)NC(=O)[C@H](Cc1ccccc1)NC(=O)[C@H](CCC(=O)O)NC(=O)[C@H](CC(=O)O)NC(C)=O)C(=O)N[C@@H](CO)C(=O)NCC(=O)NCC(=O)Nc1ccc(N)c2c1C(=O)c1ccccc1C2=O [Compound 5766, Acetyl-Asp-Glu-Phe-Glu-Cha-ABA-Ser-Gly-Gly-toxin] (Ac-DEFE[Cha][Abu]SGG-{NH(4-NH2-anthraquinon-1-yl)})
- IC50 [1, 22]: 5.3 µM
- IC50 [2, 23]: 8.5 µM
- IC50 [3, 14]: 10.2 µM
- IC50 [4, 15]: 24.5 µM

Structure (SMILES): CC[C@H](NC(=O)[C@H](CC(C)C)NC(=O)[C@@H](NC(=O)[C@H](C)NC(=O)[C@H](CCC(=O)O)NC(=O)[C@H](CC(=O)O)NC(C)=O)C(C)C)C(=O)N[C@@H](CO)C(=O)NCC(=O)NCC(=O)Nc1ccc(N)c2c1C(=O)c1ccccc1C2=O [Compound 5767, Acetyl-Asp-Glu-Ala-Val-Leu-ABA-Ser-Gly-Gly-toxin] (Ac-DEAVL[Abu]SGG-{NH(4-NH2-anthraquinon-1-yl)})
- IC50 [1, 6]: > 150 µM
- IC50 [1, 7]: 13 µM
- IC50 [1, 8]: 11 µM
- IC50 [1, 20]: 11 µM
- IC50 [1, 21]: 8 µM
- IC50 [1, 22]: 5.1 µM and 8 µM
- IC50 [2, 23]: 8 µM
- IC50 [3, 14]: 13.2 µM
- IC50 [4, 15]: 13.8 µM

Structure (SMILES): CC[C@H](NC(=O)[C@@H]1CCCN1C(=O)[C@@H](NC(=O)[C@@H](NC(=O)[C@H](CCC(=O)O)NC(=O)[C@H](CC(=O)O)NC(C)=O)C(C)C)[C@@H](C)O)C(=O)N[C@@H](CO)C(=O)NCC(=O)NCC(=O)Nc1ccc(N)c2c1C(=O)c1ccccc1C2=O [Compound 5768, Acetyl-Asp-Glu-Val-Tbr-Pro-ABA-Ser-Gly-Gly-toxin] (Ac-DEVTP[Abu]SGG-{NH(4-NH2-anthraquinon-1-yl)})
- IC50 [2, 23]: 14 µM
- IC50 [3, 14]: 32 µM
- IC50 [4, 15]: 24 µM
